“And” between values parts separate entries of the source, which are not always exact repeats. Identical values can stand only once. Like-named read-outs stand apart in the source and are kept apart here.

Consider one compound from patent US20180256560A1 (priority 2015, published 2018).

Test in series [1]: not given
The source holds these as a separate data set.

The conditions of series [2]: 20 mg/ml nicotine in the formulation; FIGS. 4.4-4.6.
Protocol: Test solutions were prepared from ethanol, de-ionized water, a 20% stock solution of glycerol in de-ionized water, a 5 M NaCl solution and nicotine solutions of 40 mg/ml in either ethanol or de-ionized water. Solutions were analysed for droplet size distributions generated by an eFlow© rapid nebulizer device (PARI GmbH) which was placed at 90° to, and 15 cm from, the laser light path of a Malvern Spraytec particle sizer. A Malvern Spraytec Real Time Droplet Sizer and an Alberta Idealized Throat coupled to an Andersen Cascade Impactor (AIT/ACI) were also used to determine droplet size.
The surface to volume ratio of the droplets was calculated using the following formulae:
Test in series [3]: not given
The source holds these as a separate data set.

The conditions of series [4]: cited from earlier work.

Turning to `CN1CCC[C@H]1c1cccnc1` [nicotine, (S)-3-(1-Methyl-2-pyrrolidinyl)pyridine], the “reduction of nicotine in gas form at equilibrium by ethanol” value (20 mg/ml nicotine, 1% ethanol, FIG. 2.3) is reported as 90%. The “effect of pH on amount of nicotine in gas form at equilibrium” value (decreasing pH from 10 to 3, FIG. 2.2) is “dramatically decreases”. The “effect of metal salt on amount of gaseous nicotine at equilibrium” value (higher salt concentrations) is on record as “larger amounts of gaseous nicotine”. The “enhancement of gaseous release of nicotine from the solution by salt” value in series [1] (1M NaCl) is “two-fold”. Moreover, the “reduction of nicotine gas release by ethanol (dynamic)” value in series [1] (10% ethanol, FIG. 3.4) is on record as 90%. Moreover, the “effect of pH on nicotine gas release (dynamic)” value in series [1] (decreasing pH from 8 to 3, FIG. 3.2) is “dramatically decreases”. Moreover, the “effect of NaCl on nicotine release in gas form (dynamic)” value in series [1] (increasing NaCl from 0 to 1M, FIG. 3.3) is “dramatically increases”. The “effect of adding nicotine on droplet size” value in series [2] is recorded as “no major shift in droplet size”. The nicotine molecules uncharged entry in series [3] (pH 7) was “approximately 10%”; in series [3] (pH 10) it was > 99% and ~100%. Also, the “nicotine in 5 litres of arterial blood” value in series [4] (25% of the average 1 mg of nicotine delivered by a cigarette) was 30 to 60 ng/mL. Moreover, the “time to peak nicotine concentration in arterial blood” value in series [4] (smokers, typical) was 3 to 5 min.
